Measurements taken from patent US12084472B2 (Ardelyx, Inc., priority 2015, dated 2024).

The compounds below were run against T1, human TGR5 (Homo sapiens, UniProt Q8TDU6) (assay: Cell-based TGR5 assay (cAMP generation, HTRF)). Conditions: HEK293 cells stably transfected with human TGR5; cAMP by HTRF; 30 minutes at 37° C.; read-out: pEC50 Human TGR5 (converted).
T1 construct: expressed in transfected cells; host or cells: HEK293
T1 sequence (Q8TDU6 1-330): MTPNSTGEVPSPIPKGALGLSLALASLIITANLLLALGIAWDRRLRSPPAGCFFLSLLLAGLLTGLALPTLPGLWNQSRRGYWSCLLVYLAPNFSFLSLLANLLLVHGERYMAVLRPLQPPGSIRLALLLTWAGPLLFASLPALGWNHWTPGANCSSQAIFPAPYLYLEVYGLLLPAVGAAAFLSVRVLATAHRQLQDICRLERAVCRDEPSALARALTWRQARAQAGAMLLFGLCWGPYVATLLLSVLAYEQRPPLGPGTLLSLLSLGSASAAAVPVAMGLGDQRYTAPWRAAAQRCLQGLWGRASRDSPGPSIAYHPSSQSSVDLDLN
Summary of the method: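 Read-out was HTRF detection of cAMP, converted to concentration via a standard curve and fitted (3-parameter logistic) for pEC50 and maximal response. Agonist stimulation used HEK293 cells stably transfected with human TGR5, incubated 30 min at 37° C in IBMX-containing buffer at 0.05 nM to 10 μM compound.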

Structure (SMILES)	EC50 [nM]
Cc1cc(CNC2(c3cnccc3-c3ccccc3OC3CC3)CC2)c(Cl)cc1CCCCC(=O)NC[C@H](O)[C@@H](O)[C@H](O)[C@H](O)CO [Compound I-142, 5-{5-chloro-4-[({1-[4-(2-cyclopropoxyphenyl)pyridin-3-yl]cyclopropyl}amino)methyl]-2-methylphenyl}-N-[(2S,3R,4R,5R)-2,3,4,5,6-pentahydroxyhexyl]pentanamide]	< 100
Cc1cc(CNC2(c3cnccc3-c3ccccc3OC3CC3)CC2)c(Cl)cc1CCCCC(=O)N(C)C[C@H](O)[C@@H](O)[C@H](O)[C@H](O)CO [Compound I-143, 5-{5-chloro-4-[({1-[4-(2-cyclopropoxyphenyl)pyridin-3-yl]cyclopropyl}amino)methyl]-2-methylphenyl}-N-methyl-N-[(2S,3R,4R,5R)-2,3,4,5,6-pentahydroxyhexyl]pentanamide]	< 100
CC(C)(CCCc1cc(Cl)c(COC2(c3cnccc3-c3ccccc3OC3CC3)CC2)cc1Cl)C(=O)NC[C@H](O)[C@@H](O)[C@H](O)[C@H](O)CO [Compound I-144, 5-[2,5-dichloro-4-({1-[4-(2-cyclopropoxyphenyl)pyridin-3-yl]cyclopropoxy}methyl)phenyl]-2,2-dimethyl-N-[(2S,3R,4R,5R)-2,3,4,5,6-pentahydroxyhexyl]pentanamide]	126 to 1000
Cc1cc(COC2(c3cnccc3-c3ccccc3OC3CC3)CC2)c(Cl)cc1CCCCC(=O)NC[C@H](O)[C@@H](O)[C@H](O)[C@H](O)CO [Compound I-145, 5-[5-chloro-4-({1-[4-(2-cyclopropoxyphenyl)pyridin-3-yl]cyclopropoxy}methyl)-2-methylphenyl]-N-[(2S,3R,4R,5R)-2,3,4,5,6-pentahydroxyhexyl]pentanamide]	< 100
Cc1cc(COC2(c3cnccc3-c3ccccc3OC3CC3)CC2)c(Cl)cc1CCCCC(=O)N(C)C[C@H](O)[C@@H](O)[C@H](O)[C@H](O)CO [Compound I-146, 5-[5-chloro-4-({1-[4-(2-cyclopropoxyphenyl)pyridin-3-yl]cyclopropoxy}methyl)-2-methylphenyl]-N-methyl-N-[(2S,3R,4R,5R)-2,3,4,5,6-pentahydroxyhexyl]pentanamide]	< 100

The remaining lines, values ahead:

EC50 [nM]	Structure (SMILES)
126 to 1000	Cc1cc(CNC2(c3cnccc3-c3ccccc3OC3CC3)CC2)c(C)cc1CCCCC(=O)NC[C@H](O)[C@@H](O)[C@H](O)[C@H](O)CO [Compound I-148, 5-{4-[({1-[4-(2-cyclopropoxyphenyl)pyridin-3-yl]cyclopropyl}amino)methyl]-2,5-dimethylphenyl}-N-[(2S,3R,4R,5R)-2,3,4,5,6-pentahydroxyhexyl]pentanamide]
126 to 1000	Cc1cc(CNC2(c3cnccc3-c3ccccc3OC3CC3)CC2)c(C)cc1CCCCC(=O)N(C)C[C@H](O)[C@@H](O)[C@H](O)[C@H](O)CO [Compound I-149, 5-{4-[({1-[4-(2-cyclopropoxyphenyl)pyridin-3-yl]cyclopropyl}amino)methyl]-2,5-dimethylphenyl}-N-methyl-N-[(2S,3R,4R,5R)-2,3,4,5,6-pentahydroxyhexyl]pentanamide]
126 to 1000	CC(OCCc1cc(Cl)c(COC2(c3cnccc3-c3ccccc3OC3CC3)CC2)cc1Cl)C(=O)NC[C@H](O)[C@@H](O)[C@H](O)[C@H](O)CO (stereo partly drawn) [Compound I-152, 2-{2-[2,5-dichloro-4-({1-[4-(2-cyclopropoxyphenyl)pyridin-3-yl]cyclopropoxy}methyl)phenyl]ethoxy}-N-[(2S,3R,4R,5R)-2,3,4,5,6-pentahydroxyhexyl]propanamide]
< 100	O=C(CCCCc1cc(Cl)c(COC2(c3cnccc3-c3ccccc3OC3CC3)CC2)cc1Cl)N[C@@H](C(=O)O)[C@@H](O)[C@H](O)[C@H](O)CO [Compound I-153]
< 100	O=C(CCCCc1cc(Cl)c(COC2(c3cnccc3-c3ccccc3OC3CC3)CC2)cc1Cl)N[C@@H]1[C@@H](O)[C@H](O)[C@@H](CO)O[C@H]1O [Compound I-154, 5-[2,5-dichloro-4-({1-[4-(2-cyclopropoxyphenyl)pyridin-3-yl]cyclopropoxy}methyl)phenyl]-N-[(2R,3R,4R,5S,6R)-2,4,5-trihydroxy-6-(hydroxymethyl)oxan-3-yl]pentanamide]
